# From a melting point compilation (Tetko et al.; mined from patent text by program, amines drawn as free bases though some values may be those of a salt)
row,melting point [°C],Structure (SMILES)
1,148 to 150,CCC(=C(c1ccccc1)c1ccc(C=CC(=O)O)cc1)c1ccccc1
2,167 to 176,CCN1C(=O)C(NC(=O)C(F)(F)F)CCc2c1ccc(Nc1ncc(Cl)c(N[C@H]3[C@@H](C(N)=O)[C@@H]4C=C[C@H]3C4)n1)c2OC (stereo not given in full)
3,175,COc1cc2c(cc1OC)CN(CCc1ccc(NC(=O)c3cccc4c(=O)c5cccc(C)c5[nH]c34)cc1)CC2
4,157 to 160,CC(=O)Nc1ccc2c(c1)C(=O)C(Br)CCO2 (stereo not given)
5,161 to 163,CN1C(=O)CCC2(C)c3ccc(Sc4cncc5ccccc45)cc3CCC12 (stereo not given)
6,170 to 171,O=C(O)COc1ccc(C(=C2CCCCCC2)c2ccc(O)cc2)cc1
7,87 to 89,CCN(C1CC(C)(C)Oc2ccc(OCc3cc(OC)ccn3)cc21)S(C)(=O)=O (stereo not given)
8,162 to 163,CCOC(=O)c1sc2ccc(O)c(C=Nc3ccc(OC)cc3)c2c1Cl
9,186,O=C(O)Cc1ccc(Br)c(O)c1Br
10,139,Cc1c(Cc2cccc(C(F)(F)F)c2F)c2ccc(Cl)c(Cl)c2n1CCCNS(C)(=O)=O
11,218 to 220,COc1ccc(-c2nc3ccc(C(C)(C)CNC(=O)C(C)C)cc3[nH]2)cc1
12,121 to 122,N#Cc1cnn(-c2nc(Cl)c(C(F)(F)F)cc2Cl)c1Br
13,138 to 139,CC(C)(C)OC(=O)NC(CI)c1ccc(F)cc1 (stereo not given)
14,130 to 132,CCOC(=O)CC[C@H](NC(=O)c1ccc(N)cc1F)C(=O)OCC
15,110,COC(=O)[C@@H](Cc1ccccc1)NC(=O)Nc1n[nH]c(=S)s1
16,96.5 to 98,CCOC(=O)C(CC)C(=O)Nc1cc(Cl)cc(Cl)c1 (stereo not given)
17,> 250,CC1CNc2cccc3c(=O)c(C(=O)O)cn1c23 (stereo not given)
18,129 to 131,CC(=O)NCc1ccc(C(=O)CBr)s1

row,melting point [°C],Structure (SMILES)
1,205 to 207,N=C(c1ccccc1)c1cc(F)cc(NC(=O)/C=C/c2ccccn2)c1
2,175 to 184,O=C(Nc1ccnc(C(=O)NO)c1)c1ccccc1
3,102 to 106,COC(=O)[C@]1(C)CCc2c(C)c(OCc3ccccc3)c(C)c(C)c2O1
4,190,Cn1cncc1C(O)c1ccc2c(c1)c(-c1cccc(Cl)c1)nc1nnnn12 (stereo not given)
5,205 to 206,Cc1cc(C(=O)c2sc(Nc3ccc(N4CCN(C)CC4)cc3)nc2N)c(C)s1
6,70 to 72,CCCCNC(=O)NCCC
7,157 to 158,O=C(Nc1ccc(Oc2ccnc(NC3CC3)n2)c2ccccc12)c1cc(F)cc(N2CCCCC2)c1
8,284 to 286,O=C(CCCOc1ccc2nc3[nH]c(=O)[nH]c3cc2c1)N1CCCCC1
9,151 to 153,O=C(O)COc1nnc(-c2ccc3c(c2)CCO3)o1
10,136,CCc1cn2ccccc2c1S(=O)(=O)c1ccc(OCCCBr)cc1
11,138 to 139,CCN(CC)CC1CCCCN1CCNC(=O)N1c2cccnc2NC(=O)c2c1c(C)nn2C (stereo not given)
12,202 to 205,NC(=O)C1CCc2cc(S(=O)(=O)Nc3ccc(-n4nnn(CCCC5CCCC5)c4=O)cc3)ccc2O1 (stereo not given)
13,124 to 126,O=C1CCNC(C(O)c2ccccc2)C1 (stereo not given)
14,165,C=CCOc1ccc2ccc(=O)oc2c1
15,120,Clc1ccc(OCSc2ncc(Cl)cn2)cc1
16,77 to 81,CC(C)(C)OC(=O)CNC(=O)CC(c1ccccc1)c1ccccc1
17,158 to 160,CCNc1nc(N2CCN(Cc3ccccc3)CC2)ncc1C(=O)O

row,Structure (SMILES),melting point [°C]
1,CCCN1C(=O)CC(=O)N(c2ccccc2)c2cc(Cl)ccc21,192 to 194
2,C#CC1(O)CCC2(C)C(CCC3C2CCC2(C)C(OC)CCC32)C1 (stereo not given),62 to 65
3,OC(CCCN1CC=C(c2ncco2)CC1)c1ccc(F)cc1 (stereo not given),100 to 103
4,CC(c1ccc(O)cc1)(c1ccc(O)cc1)c1ccc(-c2ccccc2)cc1,182 to 183
5,COc1cc(C=CC(=O)OC2CC3CC(OC(=O)Cc4cccc(O)c4)CC2N3C)cc(OC)c1OC (stereo not given),53 to 57
